This data set deals with CCRIS mutagenicity, Ames/micronucleus/aberration tests. Put plainly: CCRIS mutagenicity studies.
[1] abbreviates: Test System: AMES SALMONELLA TYPHIMURIUM, Strain/Indicator: TA98, Metabolic Activation: NONE, Method: STANDARD PLATE.
Setting [2] is: Test System: AMES SALMONELLA TYPHIMURIUM, Strain/Indicator: TA100, Metabolic Activation: NONE, Method: STANDARD PLATE.

These results are taken from PubChem BioAssay AID1259407 (Chemical Carcinogenesis Research Information System (CCRIS), 2018).

Active and inactive are the calls of the source. The rule behind the calls is not given here.

Turning to `[O-][Br+2]([O-])O`, the mutagenic call (End Point: IN VITRO CHROMOSOMAL ABERRATIONS, Test System: CHL/IU CELLS, Metabolic Activation: NONE) is “active; positive (structural changes)”; the mutagenic call (End Point: IN VITRO MICRONUCLEUS, Test System: CHL/IU CELLS, Metabolic Activation: NONE) is “active; positive”; the mutagenic call (End Point: IN VIVO MICRONUCLEUS, Test System: BONE MARROW POLYCHROMATIC ERYTHROCYTES, Species: MOUSE, Strain/Sex: DDY/MALE, Route: ORAL) is “active; positive”; the mutagenic call (End Point: In vitro chromosomal aberrations, Test System: Chinese hamster lung (CHL) cells, Metabolic Activation: None) was “active; positive (structural changes)”; the mutagenic call (End Point: In vitro micronucleus, Test System: Human TK6 lymphoblastoid cells, Metabolic Activation: None) was “active; positive”; the mutagenic call (End Point: In vivo micronucleus, Test System: Peripheral blood normochromatic erythrocytes, Species: Mouse, Strain/Sex: Tg.AC hemizygous/Female, Route: Dermal) was “active; positive”. In addition, the mutagenic call runs as follows: (End Point: In vivo micronucleus, Test System: Peripheral blood normochromatic erythrocytes, Species: Mouse, Strain/Sex: Tg.AC hemizygous/Female, Route: Oral) “active; positive”; (End Point: In vivo micronucleus, Test System: Peripheral blood normochromatic erythrocytes, Species: Mouse, Strain/Sex: Tg.AC hemizygous/Male, Route: Dermal) “active; positive”; (End Point: In vivo micronucleus, Test System: Peripheral blood normochromatic erythrocytes, Species: Mouse, Strain/Sex: Tg.AC hemizygous/Male, Route: Oral) “active; positive”; (End Point: In vivo micronucleus, Test System: Peripheral blood normochromatic erythrocytes, Species: Mouse, Strain/Sex: p53 Haploinsufficient/Female, Route: Oral) “active; positive”; (End Point: In vivo micronucleus, Test System: Peripheral blood normochromatic erythrocytes, Species: Mouse, Strain/Sex: p53 Haploinsufficient/Male, Route: Oral) “active; positive”; (End Point: In vivo mutagenicity, Test System: Kidney, Species: Rat, Strain/Sex: Big Blue/male, Route: Oral) “active; positive for mutants and total mutation frequencies and frequency of gc to ta tr”. For the same compound, the mutagenic call (Test System: AMES SALMONELLA TYPHIMURIUM, Strain/Indicator: TA97, Metabolic Activation: HAMSTER, LIVER, S-9, AROCLOR 1254 (10%), Method: PREINCUBATION) is “inactive; negative”; the mutagenic call (Test System: AMES SALMONELLA TYPHIMURIUM, Strain/Indicator: TA97, Metabolic Activation: HAMSTER, LIVER, S-9, AROCLOR 1254 (30%), Method: PREINCUBATION) is “inactive; negative”; the mutagenic call (Test System: AMES SALMONELLA TYPHIMURIUM, Strain/Indicator: TA97, Metabolic Activation: RAT, LIVER, S-9, AROCLOR 1254 (30%), Method: PREINCUBATION) was “inactive; negative”; the mutagenic call (Test System: AMES SALMONELLA TYPHIMURIUM, Strain/Indicator: TA97, Metabolic Activation: RAT, LIVER, S-9, AROCLOR 1254, Method: PREINCUBATION) is “inactive; negative”; the mutagenic call (Test System: AMES SALMONELLA TYPHIMURIUM, Strain/Indicator: TA98, Metabolic Activation: HAMSTER, LIVER, S-9, AROCLOR 1254 (30%), Method: PREINCUBATION) is “inactive; negative”; the mutagenic call (Test System: AMES SALMONELLA TYPHIMURIUM, Strain/Indicator: TA98, Metabolic Activation: NONE, Method: PREINCUBATION) was “inactive; negative”. The mutagenic call runs as follows: (Test System: AMES SALMONELLA TYPHIMURIUM, Strain/Indicator: TA98, Metabolic Activation: RAT, LIVER, S-9, AROCLOR 1254 (30%), Method: PREINCUBATION) “inactive; negative”; (Test System: AMES SALMONELLA TYPHIMURIUM, Strain/Indicator: TA100, Metabolic Activation: HAMSTER, LIVER, S-9, AROCLOR 1254 (30%), Method: PREINCUBATION) “inactive; negative”; (Test System: AMES SALMONELLA TYPHIMURIUM, Strain/Indicator: TA100, Metabolic Activation: NONE, Method: PREINCUBATION) “inactive; negative”; (Test System: AMES SALMONELLA TYPHIMURIUM, Strain/Indicator: TA100, Metabolic Activation: RAT, LIVER, S-9, AROCLOR 1254 (30%), Method: PREINCUBATION) “inactive; negative”; (Test System: AMES SALMONELLA TYPHIMURIUM, Strain/Indicator: TA102, Metabolic Activation: NONE, Method: PREINCUBATION) “inactive; negative”; (Test System: AMES SALMONELLA TYPHIMURIUM, Strain/Indicator: TA102, Metabolic Activation: RAT, LIVER, S-9, AROCLOR 1254, Method: PREINCUBATION) “inactive; negative”. In addition, the mutagenic call is, setting by setting: (Test System: AMES SALMONELLA TYPHIMURIUM, Strain/Indicator: TA1535, Metabolic Activation: HAMSTER, LIVER, S-9, AROCLOR 1254 (10%), Method: PREINCUBATION) “active; positive”; (Test System: AMES SALMONELLA TYPHIMURIUM, Strain/Indicator: TA1535, Metabolic Activation: NONE, Method: PREINCUBATION) “inactive; negative”; (Test System: AMES SALMONELLA TYPHIMURIUM, Strain/Indicator: TA1537, Metabolic Activation: HAMSTER, LIVER, S-9, AROCLOR 1254 (10 OR 30%), Method: PREINCUBATION) “inactive; negative”; (Test System: AMES SALMONELLA TYPHIMURIUM, Strain/Indicator: TA1537, Metabolic Activation: NONE, Method: PREINCUBATION) “inactive; negative”; (Test System: AMES SALMONELLA TYPHIMURIUM, Strain/Indicator: TA1537, Metabolic Activation: RAT, LIVER, S-9, AROCLOR 1254 (10 OR 30%), Method: PREINCUBATION) “inactive; negative”; (Test System: CHINESE HAMSTER V-79 CELLS, Strain/Indicator: V-79-UL (HPRT)/6-THIOGUANINE, Metabolic Activation: NONE, Method: SUSPENSION/PLATE) “active; positive”. Moreover, the mutagenic call (Test System: Human lymphoblastoid cells, Strain/Indicator: TK6 (HPRT)/6-thioguanine, Metabolic Activation: None, Method: Suspension/Well) was “active; positive”.
Consider `CC(=O)Nc1ccc2c(c1OC(=O)c1ccccc1)Cc1ccccc1-2`, for which the mutagenic call (Test System: AMES SALMONELLA TYPHIMURIUM, Strain/Indicator: TA98, Metabolic Activation: RAT, LIVER, S-9, AROCLOR 1254, Method: STANDARD PLATE) is “inactive; negative”.
`CCSCCSP(=S)(OC)OC`: the mutagenic call is “inactive; negative” (Test System: AMES SALMONELLA TYPHIMURIUM, Strain/Indicator: TA97A, Metabolic Activation: NONE, Method: STANDARD PLATE); “inactive; negative” (Test System: AMES SALMONELLA TYPHIMURIUM, Strain/Indicator: TA97A, Metabolic Activation: PLANT, HOMOGENATE, S-14, Method: STANDARD PLATE); “inactive; negative” (Test System: AMES SALMONELLA TYPHIMURIUM, Strain/Indicator: TA97A, Metabolic Activation: S-9, Method: STANDARD PLATE); “inactive; negative” under setting [1]; “inactive; negative” (Test System: AMES SALMONELLA TYPHIMURIUM, Strain/Indicator: TA98, Metabolic Activation: PLANT, HOMOGENATE, S-14, Method: STANDARD PLATE); “inactive; negative” (Test System: AMES SALMONELLA TYPHIMURIUM, Strain/Indicator: TA98, Metabolic Activation: S-9, Method: STANDARD PLATE). The mutagenic call by setting is: under setting [2], “inactive; negative”; (Test System: AMES SALMONELLA TYPHIMURIUM, Strain/Indicator: TA100, Metabolic Activation: PLANT, HOMOGENATE, S-14, Method: STANDARD PLATE) “inactive; negative”; (Test System: AMES SALMONELLA TYPHIMURIUM, Strain/Indicator: TA100, Metabolic Activation: S-9, Method: STANDARD PLATE) “inactive; negative”; (Test System: AMES SALMONELLA TYPHIMURIUM, Strain/Indicator: TA1535, Metabolic Activation: PLANT, HOMOGENATE, S-14, Method: STANDARD PLATE) “inactive; negative”; (Test System: AMES SALMONELLA TYPHIMURIUM, Strain/Indicator: TA1535, Metabolic Activation: S-9, Method: STANDARD PLATE) “inactive; negative”; (Test System: AMES SALMONELLA TYPHIMURIUM, Strain/Indicator: TA1535, Metabolic Activation: S-9 MIX, Method: STANDARD PLATE) “active; positive”.
As for `O=C1OC(O)C(C(Br)Br)=C1Cl` (stereo unspecified), the mutagenic call is “active; positive” under setting [1]; “inactive; negative” (Test System: AMES SALMONELLA TYPHIMURIUM, Strain/Indicator: TA98, Metabolic Activation: RAT LIVER S-9, AROCLOR 1254, Method: STANDARD PLATE); “active; positive” under setting [2]; “inactive; negative” (Test System: AMES SALMONELLA TYPHIMURIUM, Strain/Indicator: TA100, Metabolic Activation: RAT LIVER S-9, AROCLOR 1254, Method: STANDARD PLATE).
`O=C(CC(O)C(=O)OCCBr)OCCBr` (stereo unspecified): the mutagenic call is “inactive; negative” under setting [1]; “inactive; negative” under setting [2]; “active; positive” (Test System: AMES SALMONELLA TYPHIMURIUM, Strain/Indicator: TA100, Metabolic Activation: RAT, LIVER, S-9, AROCLOR 1254, Method: STANDARD PLATE).
